The record followed here is US5428041A, “Antihypercholesterolemic bis-trifluoromethyl-substituted imidazolines and derivatives thereof” (The Du Pont Merck Pharmaceutical Company, priority 1992, dated 1995).

The test system of one data set is ACAT. Description: Systemic ACAT inhibitory activity. The format is in vivo. To be noted: oral, compared to the higher melting form.
The nature of data set [1]: Water solubility of polymorphs. In kind it is physicochemical. The settings on record: compared with the higher melting polymorph.
Data set [2] can be described thus: Oral bioavailability of polymorphs. The format is in vivo. The settings on record: compared to the higher melting form.
Data set [3] concerns the target T1, Acyl-CoA: Cholesterol Acyltransferase (ACAT) (Rattus norvegicus, UniProt Q7TQM4).
T1 construct: centrifuged at 105,000×g for 1 hour to pellet the microsomes; from tissue; host or cells: liver microsomes of fasted male Sprague Dawley rats
T1 sequence (Q7TQM4 1-524): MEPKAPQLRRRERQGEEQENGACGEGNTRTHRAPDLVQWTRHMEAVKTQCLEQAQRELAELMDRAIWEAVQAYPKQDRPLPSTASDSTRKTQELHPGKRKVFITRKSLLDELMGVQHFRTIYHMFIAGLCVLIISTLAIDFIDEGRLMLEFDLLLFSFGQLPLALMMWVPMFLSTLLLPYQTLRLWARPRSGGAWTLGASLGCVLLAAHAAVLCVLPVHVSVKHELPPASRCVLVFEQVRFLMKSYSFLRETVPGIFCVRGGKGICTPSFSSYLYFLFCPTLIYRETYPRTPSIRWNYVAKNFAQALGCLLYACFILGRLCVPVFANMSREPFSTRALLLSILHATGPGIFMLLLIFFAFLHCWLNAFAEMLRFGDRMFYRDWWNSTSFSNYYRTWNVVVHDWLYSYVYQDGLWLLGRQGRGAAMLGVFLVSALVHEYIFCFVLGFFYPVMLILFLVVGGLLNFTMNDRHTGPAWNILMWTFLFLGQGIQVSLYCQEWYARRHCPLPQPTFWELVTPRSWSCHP
Description: Inhibition of Acyl-CoA:Cholesterol Acyltransferase (ACAT) in hepatic microsomes. The settings on record: rat hepatic microsomes, 14C-oleoyl-CoA, 37° C., pH 7.4; read-out: In Vitro ACAT IC50. In kind it is biochemical, Sprague Dawley rat. How it is done:
A. Assay of the Inhibition of Acyl-CoA: Cholesterol Acyltransferase (ACAT) in Hepatic Microsomes
The ability of the compounds to inhibit ACAT, the enzyme responsible for the intracellular synthesis of cholesteryl esters, was tested as follows. Male Sprague Dawley rates weighing 150-300 g were fed rat chow ad libitum. The animals were fasted for twenty-four hours prior to being sacrificed by decapitation. The livers were perfused in situ with 50 ml of cold 0.25M sucrose, excised and homogenized in three volumes of 0.1M phosphate buffer, pH 7.4, that contained 0.5 mM EDTA (ethylenediaminetetraacetic acid), 1.0 mM glutathione, 0.25M sucrose and 20 mM leupeptin. Microsomes were obtained by differential centrifugation; the supernatant from an initial spin at 15,000×g for 15 minutes was centrifuged at 105,000×g for 1 hour to pellet the microsomes. The microsomes were suspended in homogenization buffer, reisolated by centrifugation, and stored at -70° C. Microsomes were used within one month of preparation.
The control assay in a final volume of 200 μl consisted of 200 μg of microsomal protein, 75 μM ^14 C-oleoyl-CoA (10,000 dpm/nmol) in 0.1M phosphate, pH 7.4, that contained 1 mM glutathione. Compounds were added in 5-10 μl of DMSO (dimethyl sulfoxide or ethanol) and additional controls were run with DMSO or ethanol only. All components, except the oleoyl-CoA, were preincubated for 15 min. at 37° C. prior to the initiation of the reaction by the addition of oleoyl CoA. The assay was terminated after 10 min by the addition of 4 ml of chloroform:methanol (2:1, v/v). 20,000 dpm of ^3 H-cholesteryl oleate and 10 μg of unlabeled cholesteryl oleate and oleic acid were added as an internal standard and carrier, respectively. After allowing 10 min. for lipid extraction, 0.8 ml of deionized water was added to separate the solution into two phases. The lower chloroform phase was collected, dried under nitrogen and resuspended in 100 μl of chloroform. The sample containing the neutral lipids was spotted onto a Gelman ITLC-SA polysilicic acid gel-impregnated sheet, which was developed using a hexane: diethyl ether: acetic acid (170:30:1 v/v/v) mobile phase. The lipids were visualized by their interaction with iodine vapor and the cholesteryl ester spot was scraped into a scintillation vial and counted. The specific activity of ACAT in the control incubation averaged 260 pmol/min/mg microsomal protein. The inhibition of ACAT activity by the compounds is shown in Table 7; the data are expressed as the concentration at which ACAT activity is inhibited by 50% (IC50).

Data set [4] relates to murine macrophage-like cell line J744.A1. Description: Inhibition of cholesterol esterification in mammalian cells (macrophage). The settings on record: Mus musculus; J744.A1 macrophage-like cells loaded with ac-LDL, 14C oleic acid. In kind it is cell-based. As for the experimental part:
B. Assay of the Inhibition of Cholesterol Esterification in Mammalian Cells The esterification of cholesterol was determined in the murine macrophage-like cell line J744.A1. Cells were seeded in 35 mm wells at a density of 300,000 cells per well in 2 mls of Dulbecco's Modified Eagle Medium (DMEM) supplemented with 10% fetal bovine serum (FBS). Cells were incubated at 37° C. in an atmosphere of 5% CO2 and 93% humidity. After 24 hours the media was changed to 0.68 mls 10% FBS-DMEM containing 34 μg of acetylated human low density lipoprotein (ac-LDL) to increase the intracellular concentration of cholesterol and promote esterification. At 41 hours, various inhibitors were added to the cells in DMSO (10 μl/ml maximum). At 43 hours, the cells were pulsed with 0.1 mM ^14 C oleic acid (10,000 dpm/nmol) complexed with BSA (bovine serum albumin) to follow cholesterol ester formation. The experiment was terminated at 45 hours by washing the monolayers 3 times with 3 ml of Tris-buffered saline at 4° C. The lipids were extracted by incubating the monolayers with 1.5 ml of hexane: isopropanol (3:2, v/v) for 30 min. under gentle agitation. During this period, 10,000 dpm ^3 H-cholesteryl linoleate and 10 μg of cholesteryl oleate were added as an internal standard and carrier respectively. The organic solvent was remoted and the cells were washed with an additional 1.0 ml of hexane: isopropanol which was combined with the original extract. The cells were allowed to dry overnight, digested with 1.5 ml of 0.2 N sodium hydroxide for 1 hour and an aliquot of the solubilized protein used for protein determination using the Lowry method. […] Individual lipids were visualized with iodine and the cholesteryl ester spot cut out and transferred to scintillation vials to determine the amount of radioactivity.

The structures appear in SMILES notation. Structures can show the parent of a compound that is named as a salt.

Turning to `CN(C(=O)c1ccc(C#N)cc1)C1N(C)C(c2ccc(C#N)cc2)=NC1(C(F)(F)F)C(F)(F)F` (centres unmarked) [132°-134° melting polymorph, N-[4,4-bis[trifluoromethyl)-4,5-dihydro-1-methyl-2-[4-cyanophenyl]-1H-imidazol-5-yl]-N-methyl-4-cyanobenzamide], in the data set with ACAT, the “systemic ACAT inhibitory activity” value is reported as “improved systemic ACAT inhibitory activity”. Also, the “water solubility relative to the 181°-183° C. melting polymorph” value in data set [1] is recorded as 3 fold. The oral bioavailability entry in data set [2] was “greater oral bioavailability”.

Consider `CN(C(=O)C12CCC(C)(C(=O)O1)C2(C)C)C1N(C)C(c2ccc(F)cc2)=NC1(C(F)(F)F)C(F)(F)F` (centres unmarked) [Example 26], for which the IC50 – broadly, the concentration that inhibits the measured activity by half – in data set [3] is 45 µM; in data set [4], 96 µM.

As for `CC(C)c1ccc(NC(=O)N(C)C2N(C)C(c3ccc(F)cc3)=NC2(C(F)(F)F)C(F)(F)F)cc1` (centres unmarked) [Example 27, N-[4,4-bis(trifluoromethyl)-2-(4-fluorophenyl)-4,5-dihydro-1-methyl-1H-imidazol-5-yl]-N'-4-isopropylphenyl-N-methylurea], the concentration for half-maximal inhibition (IC50) amounted to 3 µM in data set [3] and 16 µM in data set [4].

As for `CN1C(c2ccc(F)cc2)=NC(C(F)(F)F)(C(F)(F)F)C1NC(=O)c1ccc(N2CCCCC2)cc1` (centres unmarked) [Example 31, N-[4,4-bis(trifluoromethyl)-2-(4-fluorophenyl)-4,5-dihydro-1-methyl-1H-imidazol-5-yl]-4-(1-piperidinyl) benzamide], the half-inhibitory concentration (IC50) in data set [3] worked out at 10 µM; in data set [4] it was 13 µM.

Consider `CN1C(c2ccc(N3CCCCC3)cc2)=NC(C(F)(F)F)(C(F)(F)F)C1NC(=O)c1ccc(F)cc1` (centres unmarked) [Example 32, N-[4,4-bis(trifluoromethyl)-4,5-dihydro-1-methyl-2-[4-(1-piperidinyl)phenyl]-1H-imidazol-5-yl]-4-fluorobenzamide], for which the concentration for half-maximal inhibition (IC50) is 2 µM in data set [3] and 17 µM in data set [4].

In the case of `CCCCCCC(=O)N(C)C1N(C)C(c2ccc(N3CCCCC3)cc2)=NC1(C(F)(F)F)C(F)(F)F` (centres unmarked) [Example 33, N-[4,4-bis(trifluoromethyl)-4,5-dihydro-1-methyl-2-[4-(1-piperidinyl)phenyl]-1H-imidazol-5-yl]-N-methylheptanamide, hydrochloride], the concentration for half-maximal inhibition (IC50) in data set [3] came to 10 µM; in data set [4], 13 µM.

Take `CN(C(=O)c1ccc(F)cc1)C1N(C)C(c2ccc(C#N)cc2)=NC1(C(F)(F)F)C(F)(F)F` (centres unmarked) [Example Q, N-[4,4-bis(trifluoromethyl)-2-(4-cyanophenyl)-4,5-dihydro-1-methyl-1H-imidazol-5-yl]-N-methyl-4-fluorobenzamide]: the figures for the half-maximal inhibitory concentration (IC50) in data set [3] and in data set [4] were 1.91 µM and 34 µM, respectively.

As for `CN(C(=O)c1ccc(C#N)cc1)C1N(C)C(c2ccc(C#N)cc2)=NC1(C(F)(F)F)C(F)(F)F` (centres unmarked) [Example R, N-[4,4-bis(trifluoromethyl)-4,5-dihydro-1-methyl-2-[4-cyanophenyl]-1H-imidazol-5-yl]-N-methyl-4-cyanobenzamide], the results for the half-maximal inhibitory concentration (IC50) in data set [3] and in data set [4] were 2 µM and 13 µM, respectively.
